Experimental data: publication PMC6695355, “Alanine Scanning Studies of the Antimicrobial Peptide Aurein 1.2” (Probiotics and Antimicrobial Proteins, 2018)
Converted amounts (≈) assume the structure as drawn. Read-outs that look alike come from different tables or passages of the source. Where a SMILES comes first, the peptide text is derived from it.

Key:
[1] = test system: C. albicans ATCC 10231 biofilm; format: cell-based, Candida albicans; details: ATCC 10231, 24 h
Procedure, shortened: (§1)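 MICs came from CLSI broth microdilution, 1–512 μg/mL, with S. aureus at 0.5 × 10^5 CFU/mL in MHB for 18 h and C. albicans at 2 × 10^3 CFU/mL in RPMI-1640 for 24 h, both at 37 °C. For MBEC, 24 h biofilms were treated for 24 h; for MBIC, compound was added with the inoculum for 24 h. Resazurin was read after 1 h, with endpoint ≤10% reduction versus controls.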

C. albicans ATCC 10231 = format: cell-based, Candida albicans; details: ATCC 10231, 24 h
Procedure, shortened: as §1

[2] = test system: C. albicans ATCC 10231 biofilm formation; format: cell-based, Candida albicans; details: ATCC 10231, 24 h
Procedure, shortened: as §1

in vitro = in vitro ADME; details: bovine, serum
Procedure, shortened: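 Peptides incubated in 25% (v/v) fetal bovine serum in PBS at 37 °C, quenched with ice-cold acetonitrile at t0 and 6 h. Intact peptide quantified by RP-HPLC-MS in selected ion recording mode; % remaining = peak area at 6 h / peak area at t0.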

[3] = test system: P. aeruginosa ATCC 9027 biofilm; format: cell-based, Pseudomonas aeruginosa; details: ATCC 9027, 24 h
Procedure, shortened: (§2)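 Broth microdilution per CLSI, 1–512 μg/mL; bacteria 0.5 × 10^5 CFU/mL in MHB, 37 °C 18 h; C. albicans 2 × 10^3 CFU/mL in RPMI-1640, 24 h; MIC = lowest concentration visibly inhibiting growth. MBEC: 24-h biofilms, PBS-rinsed, compound 24 h at 37 °C, resazurin read after 1 h. MBIC: compound with inoculum 24 h, then resazurin 1 h; cut-off ≤10% reduction versus controls.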

[4] = test system: P. aeruginosa ATCC 9027 biofilm formation; format: cell-based, Pseudomonas aeruginosa; details: ATCC 9027, 24 h
Procedure, shortened: as §2

P. aeruginosa ATCC 9027 = format: cell-based, Pseudomonas aeruginosa; details: ATCC 9027, 18 h
Procedure, shortened: as §2

[5] = test system: S. aureus ATCC 25923 biofilm formation; format: cell-based, Staphylococcus aureus; details: ATCC 25923, 24 h
Procedure, shortened: as §1

S. aureus ATCC 25923 = format: cell-based, Staphylococcus aureus; details: ATCC 25923, 18 h
Procedure, shortened: as §1

[6] = test system: S. aureus ATCC 25923 biofilm; format: cell-based, Staphylococcus aureus; details: ATCC 25923, 24 h
Procedure, shortened: as §1

E. coli ATCC 25922 = format: cell-based, Escherichia coli; details: ATCC 25922, 18 h
Procedure, shortened: as §2

[7] = test system: E. coli ATCC 25922 biofilm formation; format: cell-based, Escherichia coli; details: ATCC 25922, 24 h
Procedure, shortened: as §2

[8] = test system: E. coli ATCC 25922 biofilm; format: cell-based, Escherichia coli; details: ATCC 25922, 24 h
Procedure, shortened: as §2

E. faecalis PCM 2673 = format: cell-based, Enterococcus faecalis; details: PCM 2673, 18 h
Procedure, shortened: as §2

[9] = test system: E. faecalis PCM 2673 biofilm formation; format: cell-based, Enterococcus faecalis; details: 24 h
Procedure, shortened: as §2

[10] = test system: E. faecalis PCM 2673 biofilm; format: cell-based, Enterococcus faecalis; details: 24 h
Procedure, shortened: as §2

[11] = test system: human red blood cells (RBCs); test: Hemolysis assay; format: cell-based
Procedure, shortened: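 Fresh EDTA-anticoagulated human erythrocytes were PBS-washed and used at 4% (v/v) with peptide at 1–256 μg/mL in PBS for 1 h at 37 °C. Hemoglobin release in the supernatant was read at 540 nm. PBS set 0% and 1% Triton X-100 set 100% hemolysis; run in triplicate.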

Row | Structure (SMILES) | MBEC, C. albicans ATCC 10231 [1] | MIC, C. albicans ATCC 10231 (C. albicans ATCC 10231) | MBIC, C. albicans ATCC 10231 [2] | remaining at 6 h, 0.125 mg/mL (in vitro) | MBEC, P. aeruginosa ATCC 9027 [3] | MBIC, P. aeruginosa ATCC 9027 [4] | MIC, P. aeruginosa ATCC 9027 (P. aeruginosa ATCC 9027) | MBIC, S. aureus ATCC 25923 [5] | MIC, S. aureus ATCC 25923 (S. aureus ATCC 25923) | MBEC, S. aureus ATCC 25923 [6] | MIC, E. coli ATCC 25922 (E. coli ATCC 25922) | MBIC, E. coli ATCC 25922 [7] | MBEC, E. coli ATCC 25922 [8] | MIC, E. faecalis PCM 2673 (E. faecalis PCM 2673) | MBIC, E. faecalis PCM 2673 [9] | MBEC, E. faecalis PCM 2673 [10] | Percentage of hemolysis at 1 μg/mL ([11]; red cells of human, 1 h) | Percentage of hemolysis at 4 μg/mL ([11]; red cells of human, 1 h) | Percentage of hemolysis at 8 μg/mL ([11]; red cells of human, 1 h) | Percentage of hemolysis at 32 μg/mL ([11]; red cells of human, 1 h) | further results
1 | CC[C@H](C)[C@H](NC(=O)[C@H](CCCCN)NC(=O)[C@H](CCCCN)NC(=O)[C@@H](NC(=O)[C@@H](NC(=O)[C@H](CC(=O)O)NC(=O)[C@H](Cc1ccccc1)NC(=O)[C@H](CC(C)C)NC(=O)CN)[C@@H](C)CC)[C@@H](C)CC)C(=O)N[C@@H](C)C(=O)N[C@@H](C)C(=O)N[C@@H](CO)C(=O)N[C@@H](Cc1ccccc1)C(N)=O [Peptide E11A] (H-GLFDIIKKIAASF-NH2) | > 512 µg/mL | 32 µg/mL (≈ 22.5 µM) | 4 µg/mL | 17% | 512 µg/mL | 64 µg/mL | 64 µg/mL (≈ 45 µM) | 32 µg/mL | 32 µg/mL (≈ 22.5 µM) | 16 µg/mL | 16 µg/mL (≈ 11.3 µM) | 16 µg/mL | 64 µg/mL | 32 µg/mL (≈ 22.5 µM) | 32 µg/mL | > 512 µg/mL | 0.1% | 0.2% | 0.1% | 0.4% | Percentage of hemolysis at 2 μg/mL [11]: 17.4%; Percentage of hemolysis at 16 μg/mL ([11]; red cells of human, 1 h, 16): 0.1%; Percentage of hemolysis at 64 μg/mL ([11]; red cells of human, 1 h): 2.9%; Percentage of hemolysis at 128 μg/mL ([11]; red cells of human, 1 h): 11.9%; Percentage of hemolysis at 256 μg/mL ([11]; red cells of human, 1 h): 40.2%
2 | CC[C@H](C)[C@H](NC(=O)[C@H](CCCCN)NC(=O)[C@H](CCCCN)NC(=O)[C@@H](NC(=O)[C@@H](NC(=O)[C@H](CC(=O)O)NC(=O)[C@H](Cc1ccccc1)NC(=O)[C@H](CC(C)C)NC(=O)CN)[C@@H](C)CC)[C@@H](C)CC)C(=O)N[C@@H](C)C(=O)N[C@@H](CCC(=O)O)C(=O)N[C@@H](CO)C(=O)N[C@@H](Cc1ccccc1)C(N)=O [aurein 1.2] (H-GLFDIIKKIAESF-NH2) | 256 µg/mL | 32 µg/mL (≈ 21.6 µM) | 2 µg/mL | 65% | 512 µg/mL | 128 µg/mL | 256 µg/mL (≈ 173 µM) | 128 µg/mL | 128 µg/mL (≈ 86.5 µM) | 128 µg/mL | 64 µg/mL (≈ 43.2 µM) | 128 µg/mL | 64 µg/mL | 64 µg/mL (≈ 43.2 µM) | 128 µg/mL | > 512 µg/mL | 0.0% | 0.0% | 0.0% | 0.5% | Percentage of hemolysis at 2 μg/mL ([11]; red cells of human, 1 h, 2): 0.1%; Percentage of hemolysis at 16 μg/mL ([11]; red cells of human, 1 h, 16): 0.4%; Percentage of hemolysis at 64 μg/mL ([11]; red cells of human, 1 h): 4.5%; Percentage of hemolysis at 128 μg/mL ([11]; red cells of human, 1 h): 19.2%; Percentage of hemolysis at 256 μg/mL ([11]; red cells of human, 1 h): 58.8%
3 | CC[C@H](C)[C@H](NC(=O)[C@H](CCCCN)NC(=O)[C@H](CCCCN)NC(=O)[C@@H](NC(=O)[C@@H](NC(=O)[C@H](CC(=O)O)NC(=O)[C@H](Cc1ccccc1)NC(=O)[C@H](CC(C)C)NC(=O)[C@H](C)N)[C@@H](C)CC)[C@@H](C)CC)C(=O)N[C@@H](C)C(=O)N[C@@H](CCC(=O)O)C(=O)N[C@@H](CO)C(=O)N[C@@H](Cc1ccccc1)C(N)=O [Peptide G1A] (H-ALFDIIKKIAESF-NH2) | > 512 µg/mL | 128 µg/mL (≈ 85.7 µM) | 4 µg/mL | 16% | 512 µg/mL | 256 µg/mL | 512 µg/mL (≈ 343 µM) | 512 µg/mL | 512 µg/mL (≈ 343 µM) | 512 µg/mL | 128 µg/mL (≈ 85.7 µM) | 128 µg/mL | 256 µg/mL | 128 µg/mL (≈ 85.7 µM) | 256 µg/mL | > 512 µg/mL | 0.0% | 0.0% | 0.0% | 0.0% | Percentage of hemolysis at 2 μg/mL ([11]; red cells of human, 1 h, 2): 0.0%; Percentage of hemolysis at 16 μg/mL ([11]; red cells of human, 1 h, 16): 0.0%; Percentage of hemolysis at 64 μg/mL ([11]; red cells of human, 1 h): 0.0%; Percentage of hemolysis at 128 μg/mL ([11]; red cells of human, 1 h): 0.3%; Percentage of hemolysis at 256 μg/mL ([11]; red cells of human, 1 h): 4.2%
4 | CC[C@H](C)[C@H](NC(=O)[C@H](CCCCN)NC(=O)[C@H](CCCCN)NC(=O)[C@@H](NC(=O)[C@@H](NC(=O)[C@H](CC(=O)O)NC(=O)[C@H](Cc1ccccc1)NC(=O)[C@H](CC(C)C)NC(=O)CN)[C@@H](C)CC)[C@@H](C)CC)C(=O)N[C@@H](C)C(=O)N[C@@H](CCC(=O)O)C(=O)N[C@@H](CO)C(=O)N[C@@H](C)C(N)=O [Peptide F13A] (H-GLFDIIKKIAESA-NH2) | > 512 µg/mL | 512 µg/mL (≈ 365 µM) | 8 µg/mL | 54% | > 512 µg/mL | >512 µg/mL | > 512 µg/mL | >512 µg/mL | > 512 µg/mL | 128 µg/mL | 128 µg/mL (≈ 91.2 µM) | >512 µg/mL | 512 µg/mL | 128 µg/mL (≈ 91.2 µM) | >512 µg/mL | > 512 µg/mL | 0.3% | 0.5% | 0.4% | 0.0% | Percentage of hemolysis at 16 μg/mL [11]: 0,0%; Hemolysis over the whole concentration range ([11]; 1–256 μg/mL, 4% human RBCs in PBS, 1 h, 37 °C): did not cause the lysis of RBCs; Percentage of hemolysis at 2 μg/mL ([11]; red cells of human, 1 h, 2): 0.6%; Percentage of hemolysis at 64 μg/mL ([11]; red cells of human, 1 h): 0.0%; Percentage of hemolysis at 128 μg/mL ([11]; red cells of human, 1 h): 0.0%; Percentage of hemolysis at 256 μg/mL ([11]; red cells of human, 1 h): 0.0%
